Values of other authors in patent publication US20140348931A1, “SUSTAINED-RELEASE TOPIRAMATE FORMULATIONS” (CADILA HEALTHCARE LIMITED, priority 2013, published 2014).

Conditions: in vivo

Question: With `CC1(C)OC2[C@@H](CO[C@@]3(COS(N)(=O)=O)OC(C)(C)O[C@@H]23)O1` (stereo partly drawn) [topiramate, 2, 3: 4, 5 Di-O-isopropylidene-β-D-fructopyranose sulfamate] as the compound, how does the half-life read?
Answer: The half-life was 21 h.
